The values below come from US8835646B2, “Organic compounds” (Novartis AG, priority 2005, dated 2014).

Read-outs that look alike come from different tables or passages of the source.

For experiment [1], the target named is T1, aldosterone synthase (Homo sapiens, UniProt P19099).
T1 construct: host or cells: NCI-H295R
T1 sequence (P19099 25-503): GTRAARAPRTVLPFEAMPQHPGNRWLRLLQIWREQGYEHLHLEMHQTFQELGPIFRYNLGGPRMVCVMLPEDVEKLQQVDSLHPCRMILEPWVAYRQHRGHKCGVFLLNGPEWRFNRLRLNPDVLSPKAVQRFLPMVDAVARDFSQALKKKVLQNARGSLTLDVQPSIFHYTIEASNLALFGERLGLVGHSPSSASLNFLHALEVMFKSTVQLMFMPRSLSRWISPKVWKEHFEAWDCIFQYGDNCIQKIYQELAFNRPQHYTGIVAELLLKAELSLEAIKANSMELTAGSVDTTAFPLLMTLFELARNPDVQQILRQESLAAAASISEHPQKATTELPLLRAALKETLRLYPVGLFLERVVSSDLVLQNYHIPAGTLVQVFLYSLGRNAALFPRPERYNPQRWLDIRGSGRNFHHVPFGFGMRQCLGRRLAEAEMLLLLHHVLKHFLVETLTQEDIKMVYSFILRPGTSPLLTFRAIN
The experiment in a line: cellular aldosterone production in NCI-H295R cells stimulated with Ang II (RIA/SPA). The experiment is classed as cell-based. The note with it: human adrenocortical carcinoma NCI-H295R cells, 1 μM Ang II, 24 hr. The source says:
(§1) Human adrenocortical carcinoma NCl-H295R cell line is obtained from American Type Culture Collection (Manassas, Va.). Insulin/transferrin/selenium (ITS)-A supplement (100×), DMEM/F-12, antibiotic/antimycotic (100×), and fetal calf serum (FCS) are purchased from Gibco (Grand Island, N.Y.). Anti-mouse PVT scintillation proximity assay (SPA) beads and NBS 96-well plates are obtained from Amersham (Piscataway, N.J.) and Corning (Acton, Mass.), respectively. Solid black 96-well flat bottom plates are purchased from Costar (Corning, N.Y.). Aldosterone and angiotensin (Ang II) are purchased from Sigma (St. Louis, Mo.). D-[1,2,6,7-^3H(N)]aldosterone was acquired from PerkinElmer (Boston, Mass.). Nu-serum was a product of BD Biosciences (Franklin Lakes, N.J.). The NADPH regenerating system, dibenzylfluorescein (DBF), and human aromatase Supersomes® are obtained from Gentest (Woburn, Mass.).
For in vitro measurement of aldosterone activity, human adrenocortical carcinoma NCI-H295R cells are seeded in NBS 96-well plates at a density of 25,000 cells/well in 100 μl of a growth medium containing DMEM/F12 supplemented with 10% FCS, 2.5% Nu-serum, 1 μg ITS/ml, and 1× antibiotic/antimycotic. The medium is changed after culturing for 3 days at 37° C. under an atmosphere of 5% CO2/95% air. On the following day, cells are rinsed with 100 μl of DMEM/F12 and incubated with 100 μl of treatment medium containing 1 μM Ang II and a compound at different concentrations in quadruplicate wells at 37° C. for 24 hr. At the end of incubation, 50 μl of medium is withdrawn from each well for measurement of aldosterone production by an RIA using mouse anti-aldosterone monoclonal antibodies.
Measurement of aldosterone activity can also be performed using a 96-well plate format. Each test sample is incubated with 0.02 μCi of D-[1,2,6,7-^3H(N)]aldosterone and 0.3 μg of anti-aldosterone antibody in phosphate-buffered saline (PBS) containing 0.1% Triton X-100, 0.1% bovine serum albumin, and 12% glycerol in a total volume of 200 μl at room temperature for 1 hr. Anti-mouse PVT SPA beads (50 μl) are then added to each well and incubated overnight at room temperature prior to counting in a Microbeta plate counter. The amount of aldosterone in each sample is calculated by comparing with a standard curve generated using known quantities of the hormone.
(§2) Full concentration-response curves of the test compound are performed at least 3 times. The IC50 values are derived using a non-linear least squares curve-fitting program from Microsoft XLfit.

For experiment [2], the target named is T2, human aromatase (Homo sapiens, UniProt P11511).
T2 construct: purchased Gentest (Woburn, Mass.)
T2 sequence (P11511 1-503): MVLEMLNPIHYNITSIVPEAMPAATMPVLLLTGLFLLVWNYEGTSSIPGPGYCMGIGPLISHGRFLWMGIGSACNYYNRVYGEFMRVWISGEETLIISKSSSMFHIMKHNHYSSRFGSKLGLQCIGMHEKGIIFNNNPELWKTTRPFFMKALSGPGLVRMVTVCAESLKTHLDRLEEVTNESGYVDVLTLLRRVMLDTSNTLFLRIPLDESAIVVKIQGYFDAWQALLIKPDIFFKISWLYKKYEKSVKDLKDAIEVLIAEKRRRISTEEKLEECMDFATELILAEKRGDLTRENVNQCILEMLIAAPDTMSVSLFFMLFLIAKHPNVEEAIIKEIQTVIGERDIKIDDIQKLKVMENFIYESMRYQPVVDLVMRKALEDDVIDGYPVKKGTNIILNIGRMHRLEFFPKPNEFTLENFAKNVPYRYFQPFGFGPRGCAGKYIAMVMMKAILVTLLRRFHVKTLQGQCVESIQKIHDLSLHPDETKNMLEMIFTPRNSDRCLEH
Description: human aromatase assay (Supersomes, DBF substrate, fluorescence). Type of experiment: biochemical. As to conditions: for inhibition at 10 µM: 10000 nM.
Text: as §1
To measure aromatase activity, the human aromatase assay is performed in 96-well flat bottom plates according to a published protocol (Stresser et al, 2000) with minor modifications. Briefly, 10 μl of an NADPH regenerating system containing 2.6 mM NADP^+, 6.6 mM glucose 6-phosphate, 6.6 mM MgCl2, and 0.8 U/ml glucose-6-phosphate dehydrogenase in 50 mM potassium phosphate, pH 7.4, is pre-incubated with the test compound at a desired concentration at 30° C. for 10 min in a total volume of 100 μl. Afterwards, 4 pmol of human aromatase, 20 μg of control microsomal protein, and 4 μM DBF in 100 μl of 50 mM potassium phosphate, pH 7.4, is added to each well and incubated at 30° C. for 90 min. The reaction is terminated by the addition of 75 μl of 2 N NaOH to each well. After 2 hr, the product, fluorescein, is measured by a fluorimeter using excitation and emission wavelengths of 485 and 538 nm, respectively.
as §2

For the compound `COc1cc(C2CCc3cncn32)ccc1C#N` (stereo not drawn) [4-(6,7-Dihydro-5H-pyrrolo[1,2-c]imidazol-5-yl)-2-methoxybenzonitrile], the IC50 (as a rule, the concentration at which inhibition is half-maximal) in experiment [1] is 5 nM. In experiment [2], at 10 µM the inhibition was 97%.
In experiment [1], `N#Cc1ccc(C2(C(=O)N3CCOCC3)CCc3cncn32)c(Cl)c1` (stereo not drawn) [3-Chloro-4-[5-(morpholino-4-carbonyl)-6,7-dihydro-5H-pyrrolo[1,2-c]imidazol-5-yl]benzonitrile] came in with an IC50 of 357 nM.
Compound `N#Cc1ccc(C2CC3(CC3)c3cncn32)c(F)c1` (stereo not drawn) [5′-[2-fluoro-4-cyano-phenyl]-5′,6′-dihydrospiro[cyclopropane-1,7′-pyrrolo[1,2-c]imidazole]] displayed an IC50 in experiment [1] of 11 nM. Further, in experiment [2], the inhibition (usually how much of the control response was suppressed) at 10 µM was found to be 99%.
In experiment [1], `COc1cc(C#N)ccc1C1CCCc2cncn21` (stereo not drawn) [3-Methoxy-4-(5,6,7,8-tetrahydro-imidazo[1,5-a]pyridin-5-yl)benzonitrile] registered an IC50 of 270 nM. Further, the inhibition at 10 µM in experiment [2] worked out at 100%.
The matching figures for `C=Cc1cc(C#N)ccc1C1CCc2cncn21` (stereo not drawn) [4-(6,7-Dihydro-5H-pyrrolo[1,2-c]imidazol-5-yl)-3-vinylbenzonitrile]: 31 nM and 95%.
For `COc1ccc(CN(C)C(=O)C2(c3ccc(C#N)cc3Cl)CCc3cncn32)cc1` (single isomer, unassigned) [5-(2-Chloro-4-cyanophenyl)-6,7-dihydro-5H-pyrrolo[1,2-c]imidazole-5-carboxylic acid (4-methoxybenzyl)methylamide], the inhibition at 10 µM in experiment [2] is 98%.
Consider `CC1(c2ccc(C#N)cc2-c2ccccc2)CCCc2cncn21` (stereo not drawn) [6-(5-Methyl-5,6,7,8-tetrahydroimidazo[1,5-a]pyridin-5-yl)biphenyl-3-carbonitrile], for which half-maximal inhibition in experiment [1] (IC50) required 270 nM.
As to `Fc1ccc(C2CCCc3cncn32)c(-c2ccccc2)c1` (stereo not drawn) [5-(5-Fluorobiphenyl-2-yl)-5,6,7,8-tetrahydroimidazo[1,5-a]pyridine], the IC50 in experiment [1] amounted to 57 nM. In experiment [2], this compound gave an inhibition at 10 µM of 98%.
The compound `Cc1cc(C2CCc3cncn32)ccc1C#N` (stereo not drawn) [4-(6,7-Dihydro-5H-pyrrolo[1,2-c]imidazol-5-yl)-2-methylbenzonitrile] came in with a half-inhibitory concentration (IC50) in experiment [1] of 3 nM. This compound also showed an inhibition at 10 µM in experiment [2] of 95%.
The compound `CC1CCCC(c2ccc(C#N)cc2-c2ccc(F)cc2)n2cncc21` (single isomer, unassigned) [4′-Fluoro-6-(9-methyl-6,7,8,9-tetrahydro-5H-imidazo[1,5-a]azepin-5-yl)biphenyl-3-carbonitrile] showed an inhibition at 10 µM in experiment [2] of 81%.
As to `N#Cc1ccc(C2CCCCc3cncn32)cc1Br` (stereo not drawn) [2-Bromo-4-(6,7,8,9-tetrahydro-5H-imidazo[1,5-a]azepin-5-yl)benzonitrile], 23 nM corresponded to half-maximal inhibition in experiment [1] (IC50). This compound gave an inhibition at 10 µM in experiment [2] of 100%.
Turning to `Cc1noc(C)c1-c1cc(C#N)ccc1C1CCCCc2cncn21` (stereo not drawn) [3-(3,5-Dimethylisoxazol-4-yl)-4-(6,7,8,9-tetrahydro-5H-imidazo[1,5-a]azepin-5-yl)benzonitrile], half-maximal inhibition in experiment [1] (IC50) was put at 40 nM. Further, in experiment [2], the inhibition at 10 µM was determined as 59%.
`COC(=O)C1(c2cc(OC)c(C#N)cc2OC)CCc2cncn21` (stereo not drawn) [5-(4-Cyano-2,5-dimethoxyphenyl)-6,7-dihydro-5H-pyrrolo[1,2-c]imidazole-5-carboxylic acid methyl ester] gave an IC50 in experiment [1] of 113 nM. In experiment [2], this compound returned an inhibition at 10 µM of 98%.
With `Cc1cc(C#N)ccc1C1CCc2cncn21` (single isomer, unassigned) [4-(6,7-Dihydro-5H-pyrrolo[1,2-c]imidazol-5-yl)-3-methylbenzonitrile], in experiment [2], the “% inhibition of aromatase @ 10000 nM” value stood at 96% and the inhibition at 10 µM was determined as 96%.
The compound `C=C1CC2(CCCCc3cncn32)c2ccc(C#N)cc21` (stereo not drawn) [3′-Methylene-2′,3′,6,7,8,9-hexahydrospiro[imidazo[1,5-a]azepine-5,1′-indene]-5′-carbonitrile] had an IC50 in experiment [1] of 11 nM. This compound also displayed an inhibition at 10 µM in experiment [2] of 100%.
With `COc1cc(C#N)ccc1C1(C(=O)OCCOC(C)C)CCc2cncn21` (stereo not drawn) [5-(4-Cyano-2-methoxyphenyl)-6,7-dihydro-5H-pyrrolo[1,2-c]imidazole-5-carboxylic acid 2-isopropoxyethyl ester], inhibition in experiment [1] was half-maximal at 5 nM (IC50). Besides, the inhibition at 10 µM in experiment [2] amounted to 96%.
`COC(=O)C1(c2ccc(C#N)cc2C(F)(F)F)CCc2cncn21` (stereo not drawn) [5-(4-Cyano-2-trifluoromethylphenyl)-6,7-dihydro-5H-pyrrolo[1,2-c]imidazole-5-carboxylic acid methyl ester] had an IC50 in experiment [1] of 244 nM.
In the case of `CC1CCCC(c2ccc(C#N)cc2-c2ccc(F)cc2)n2cncc21` (single isomer, unassigned) [4′-Fluoro-6-(9-methyl-6,7,8,9-tetrahydro-5H-imidazo[1,5-a]az] [4′-Fluoro-6-(9-methyl-6,7,8,9-tetrahydro-5H-imidazo[1,5-a]azepin-5-yl)biphenyl-3-carbonitrile], the “% inhibition of aromatase @ 10000 nM” value in experiment [2] (10 µM) came out at 98%.
For `COc1ccc(CN(C)C(=O)C2(c3ccc(C#N)cc3Cl)CCc3cncn32)cc1` (single isomer, unassigned) [5-(2-chloro-4-cyanophenyl)-6,7-dihydro-5H-pyrrolo[1,2-c]imid] [5-(2-Chloro-4-cyanophenyl)-6,7-dihydro-5H-pyrrolo[1,2-c]imidazole-5-carboxylic acid (4-methoxybenzyl)methylamide], the “% inhibition of aromatase @ 10000 nM” value in experiment [2] (10 µM) amounted to 97%.
On to `N#Cc1ccc(C2(C(=O)OCc3ccc(F)cc3)CCc3cncn32)c(Cl)c1` (single isomer, unassigned) [5-(2-Chloro-4-cyanophenyl)-6,7-dihydro-5H-pyrrolo[1,2-c]imidazole-5-carboxylic acid 4-fluorobenzyl ester], for which testing at 10 µM in experiment [2] gave an inhibition of 91%.
In the case of `N#Cc1ccc(C2(C(=O)OCc3ccc(F)cc3)CCc3cncn32)c(Cl)c1` (single isomer, unassigned) [5-(2-Chloro-4-cyanophenyl)-6,7-dihydro-5H-pyrrolo[1,2-c]imid] [5-(2-Chloro-4-cyanophenyl)-6,7-dihydro-5H-pyrrolo[1,2-c]imidazole-5-carboxylic acid 4-fluorobenzyl ester], the “% inhibition of aromatase @ 10000 nM” value in experiment [2] (10 µM) worked out at 98%.
